Test results taken from patent US20190337921A1, “TETRASUBSTITUTED ALKENE COMPOUNDS AND THEIR USE” (Eisai R&D Management Co., Ltd., priority 2016, published 2019).

Columns and labels:
[1] = tested on: MCF7-Y537S cells (Y537S ER, MCF7.7); assay: In vitro proliferation (viability) assay, CellTiter-Glo, MCF7-Y537S; assay type: cell-based; conditions: Homo sapiens, CTG on day 6 compared to day 0, read-out: Y537S ER CTGlo MCF7.7 GI50 Mean
Experimental: (§1) MCF7 BUS cells (Coser, et al., (2003) PNAS 100(24): 13994-13999) were maintained in Dulbecco's Modified Eagle Medium supplemented with 10%/o FBS, 4 mM L-glutamine and 1× non-essential amino acids. Lenti-X 293T cells (Clontech, Cat #632180) were routinely cultured in Dulbecco's Modified Eagle Medium supplemented with 10% FBS.
(§2) The QuikChange II XL Site-Directed Mutagenesis Kit (Agilent Technologies, Cat #200523) was used to generate Y537S, Y537C, Y537N and D538G mutations within the ERα exon 8. […]
(§3) MCF7-WT and —Y537S cells were seeded at 1500 cells/well in black-walled 96-well plates (assay plates. Costar, Cat #3904). In parallel, cells were also seeded in a separate 96-well plate (8 wells/cell line, control plate) for which a CTG (CellTiter-Glo® Luminescent Viability Assay, Promega, Cat #G7572) was measured the following day (day 0 reading). The day 0 reading was used for the GI50 calculation at the termination of the experiment. […] CTG was measured and compared to day 0 readings from control plate to assess GI50.

[2] = tested on: MCF7-WT cells (WT ER, MCF7.6); assay: In vitro proliferation (viability) assay, CellTiter-Glo, MCF7-WT; assay type: cell-based; conditions: Homo sapiens, CTG on day 6 compared to day 0, read-out: WT ER CTGlo MCF7.6 GI50 Mean
Experimental: as §1, §2, §3

[3] = tested on: MCF7 cells with ectopic expression of ERα Y537S/N/C, D538G; assay: In vitro proliferation of wild-type and mutant ER-bearing MCF7 lines with clinical therapies (FIG. 1); assay type: cell-based, human
Experimental: 48 h post-transfection, virus containing media was filtered and added to MCF7 cells in the presence of 8 μg/ml polybrene overnight. Two days following infection, cells were placed under selection with 10 μg/ml blasticidin for 2 weeks for stable expression.
In parallel, cells were also seeded in a separate 96-well plate (8 wells/cell line, control plate) for which a CTG (CellTiter-Glo® Luminescent Viability Assay, Promega, Cat #G7572) was measured the following day (day 0 reading). The day 0 reading was used for the GI50 calculation at the termination of the experiment. The day following seeding, compounds were added to assay plates. Briefly, a 1:4 serial dilution was prepared in DMSO at 200× final concentration for a total of 10 concentrations (9 dilutions containing compound and one is DMSO only). Serially diluted compounds were pipetted into medium to prepare a compound-medium mix at 10× final concentration. 10 μl of compound-medium mix was added to MCF7-WT and —Y537S cells at 3 wells/concentration (triplicate for each concentration). On day 3, media-compound was removed and replaced with fresh media/compound as described above. On day 6. CTG was measured and compared to day 0 readings from control plate to assess GI50.

| SMILES | GI50 [1] | GI50 [2] | Resistance of ERα mutant-bearing MCF7 lines relative to control lines [3] |
| --- | --- | --- | --- |
| CC/C(=C(/c1ccc(OCCNC/C=C/C(=O)N(C)C)cc1)c1ccc2[nH]ccc2c1)c1ccccc1 [Compound 102, (E)-4-(2-(4-((E)-1-(1H-indol-5-yl)-2-phenylbut-1-enyl)phenoxy)ethylamino)-N,N-dimethylbut-2-enamide] | 27.5 nM | 1.75 nM |  |
| C[C@]12CC[C@@H]3c4ccc(O)cc4C[C@@H](CCCCCCCCC[S+]([O-])CCCC(F)(F)C(F)(F)F)[C@H]3[C@@H]1CC[C@@H]2O (some centres unmarked) [fulvestrant] |  |  | phenotypic resistance |
| CC/C(=C(\c1ccccc1)c1ccc(OCCN(C)C)cc1)c1ccccc1 [tamoxifen] |  |  | phenotypic resistance |
| O=C(c1ccc(OCCN2CCCCC2)cc1)c1c(-c2ccc(O)cc2)sc2cc(O)ccc12 [raloxifene] |  |  | phenotypic resistance |
